ChEMBL document CHEMBL5291721, “A preclinical secondary pharmacology resource illuminates target-adverse drug reaction associations of marketed drugs” (Nat Commun, 2023)

Key:
Adenosine receptor A3 = target: T1, Adenosine receptor A3 (Homo sapiens, UniProt P0DMS8)
T1 sequence (P0DMS8 whole entry): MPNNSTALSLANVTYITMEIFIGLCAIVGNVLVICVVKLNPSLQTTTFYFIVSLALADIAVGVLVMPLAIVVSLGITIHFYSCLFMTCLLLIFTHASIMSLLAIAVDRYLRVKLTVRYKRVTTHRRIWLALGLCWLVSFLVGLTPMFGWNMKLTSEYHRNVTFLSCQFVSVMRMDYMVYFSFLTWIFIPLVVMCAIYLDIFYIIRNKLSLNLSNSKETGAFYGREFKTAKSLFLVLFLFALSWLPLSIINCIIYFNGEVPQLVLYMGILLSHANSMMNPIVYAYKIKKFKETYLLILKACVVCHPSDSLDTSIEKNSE

[1] = target: 3',5'-cyclic-AMP phosphodiesterase 4A (Homo sapiens, UniProt P27815); type: functional
Sequence of 3',5'-cyclic-AMP phosphodiesterase 4A (P27815 whole entry): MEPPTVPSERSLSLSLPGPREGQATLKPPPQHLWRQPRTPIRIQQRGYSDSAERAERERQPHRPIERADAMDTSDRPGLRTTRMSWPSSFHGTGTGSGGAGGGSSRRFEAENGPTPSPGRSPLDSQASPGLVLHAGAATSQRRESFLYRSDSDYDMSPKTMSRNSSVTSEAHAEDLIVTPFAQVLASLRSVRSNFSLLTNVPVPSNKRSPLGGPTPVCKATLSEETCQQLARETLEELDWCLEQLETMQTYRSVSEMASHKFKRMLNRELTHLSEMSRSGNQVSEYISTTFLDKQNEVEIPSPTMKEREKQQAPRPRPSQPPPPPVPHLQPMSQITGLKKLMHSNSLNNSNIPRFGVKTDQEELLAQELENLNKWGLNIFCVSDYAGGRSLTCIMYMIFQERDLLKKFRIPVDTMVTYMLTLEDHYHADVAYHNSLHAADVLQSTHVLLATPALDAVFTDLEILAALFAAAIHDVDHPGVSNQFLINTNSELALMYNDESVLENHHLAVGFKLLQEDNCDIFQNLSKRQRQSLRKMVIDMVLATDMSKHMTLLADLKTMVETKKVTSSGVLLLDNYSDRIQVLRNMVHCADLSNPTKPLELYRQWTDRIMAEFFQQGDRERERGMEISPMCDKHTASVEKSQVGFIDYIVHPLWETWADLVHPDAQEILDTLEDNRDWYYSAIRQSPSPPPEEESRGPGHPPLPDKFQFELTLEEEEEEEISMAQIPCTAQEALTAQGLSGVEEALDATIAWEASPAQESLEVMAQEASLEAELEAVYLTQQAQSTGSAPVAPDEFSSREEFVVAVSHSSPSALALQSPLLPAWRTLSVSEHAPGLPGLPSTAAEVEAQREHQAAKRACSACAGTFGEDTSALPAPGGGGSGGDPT

Progesterone receptor = target: T2, Progesterone receptor (Homo sapiens, UniProt P06401)
T2 sequence (P06401 whole entry): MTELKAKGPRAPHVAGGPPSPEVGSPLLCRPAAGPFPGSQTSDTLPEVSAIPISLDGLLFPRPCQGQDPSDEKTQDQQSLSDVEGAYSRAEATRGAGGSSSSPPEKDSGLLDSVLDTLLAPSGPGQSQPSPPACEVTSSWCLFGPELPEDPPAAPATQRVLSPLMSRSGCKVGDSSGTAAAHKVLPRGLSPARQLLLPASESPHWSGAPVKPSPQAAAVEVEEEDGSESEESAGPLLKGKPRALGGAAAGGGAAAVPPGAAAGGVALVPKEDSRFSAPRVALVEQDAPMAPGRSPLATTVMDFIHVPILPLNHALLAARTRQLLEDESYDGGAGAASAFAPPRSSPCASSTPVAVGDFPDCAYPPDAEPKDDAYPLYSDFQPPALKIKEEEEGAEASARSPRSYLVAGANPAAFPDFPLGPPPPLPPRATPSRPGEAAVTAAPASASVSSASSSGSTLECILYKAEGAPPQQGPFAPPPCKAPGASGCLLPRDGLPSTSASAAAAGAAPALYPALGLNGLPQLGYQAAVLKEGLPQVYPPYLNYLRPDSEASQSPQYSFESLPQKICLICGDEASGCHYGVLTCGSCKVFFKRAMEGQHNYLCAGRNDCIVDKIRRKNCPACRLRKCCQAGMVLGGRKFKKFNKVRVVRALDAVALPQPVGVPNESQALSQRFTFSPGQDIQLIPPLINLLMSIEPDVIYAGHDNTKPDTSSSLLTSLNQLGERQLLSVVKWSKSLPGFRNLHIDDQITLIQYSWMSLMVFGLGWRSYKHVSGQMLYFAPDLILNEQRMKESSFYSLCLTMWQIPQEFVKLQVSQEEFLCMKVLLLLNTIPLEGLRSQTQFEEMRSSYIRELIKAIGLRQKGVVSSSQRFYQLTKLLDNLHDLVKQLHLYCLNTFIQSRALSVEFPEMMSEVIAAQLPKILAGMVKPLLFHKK

[2] = target: T3, Alpha-1A adrenergic receptor (Homo sapiens, UniProt P35348); type: functional, cell-based
T3 sequence (P35348 whole entry): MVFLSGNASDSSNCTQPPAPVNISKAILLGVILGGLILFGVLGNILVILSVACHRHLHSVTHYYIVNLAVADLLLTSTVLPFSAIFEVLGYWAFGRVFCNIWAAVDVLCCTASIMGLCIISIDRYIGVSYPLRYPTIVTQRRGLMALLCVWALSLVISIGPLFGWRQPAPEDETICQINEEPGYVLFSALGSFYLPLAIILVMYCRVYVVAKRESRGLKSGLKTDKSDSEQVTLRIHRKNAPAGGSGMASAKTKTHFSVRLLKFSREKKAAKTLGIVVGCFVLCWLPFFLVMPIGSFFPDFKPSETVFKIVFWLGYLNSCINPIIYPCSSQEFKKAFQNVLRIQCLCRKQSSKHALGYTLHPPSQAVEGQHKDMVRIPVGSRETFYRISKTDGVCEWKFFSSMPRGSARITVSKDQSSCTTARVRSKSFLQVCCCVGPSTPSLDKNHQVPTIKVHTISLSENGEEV

[3] = target: T4, Muscarinic acetylcholine receptor M1 (Homo sapiens, UniProt P11229); type: functional, cell-based
T4 sequence (P11229 whole entry): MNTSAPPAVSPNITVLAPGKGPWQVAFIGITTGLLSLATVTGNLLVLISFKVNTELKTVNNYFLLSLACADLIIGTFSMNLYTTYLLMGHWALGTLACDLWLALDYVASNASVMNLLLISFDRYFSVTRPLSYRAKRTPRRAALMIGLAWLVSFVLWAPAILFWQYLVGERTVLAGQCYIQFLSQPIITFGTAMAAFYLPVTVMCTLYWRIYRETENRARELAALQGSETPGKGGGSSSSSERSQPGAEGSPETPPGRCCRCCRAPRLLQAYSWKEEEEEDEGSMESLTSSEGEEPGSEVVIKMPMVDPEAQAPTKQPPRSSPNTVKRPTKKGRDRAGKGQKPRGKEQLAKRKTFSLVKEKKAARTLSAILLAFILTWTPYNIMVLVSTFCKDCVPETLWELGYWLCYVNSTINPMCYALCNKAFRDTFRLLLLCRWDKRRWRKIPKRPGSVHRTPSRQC

[4] = target: T4, Muscarinic acetylcholine receptor M1; type: functional, cell-based; remark: listed apart in the source
[5] = target: Voltage-dependent L-type calcium channel subunit alpha-1C (Rattus norvegicus, UniProt P22002); type: functional
Sequence of Voltage-dependent L-type calcium channel subunit alpha-1C (P22002 whole entry): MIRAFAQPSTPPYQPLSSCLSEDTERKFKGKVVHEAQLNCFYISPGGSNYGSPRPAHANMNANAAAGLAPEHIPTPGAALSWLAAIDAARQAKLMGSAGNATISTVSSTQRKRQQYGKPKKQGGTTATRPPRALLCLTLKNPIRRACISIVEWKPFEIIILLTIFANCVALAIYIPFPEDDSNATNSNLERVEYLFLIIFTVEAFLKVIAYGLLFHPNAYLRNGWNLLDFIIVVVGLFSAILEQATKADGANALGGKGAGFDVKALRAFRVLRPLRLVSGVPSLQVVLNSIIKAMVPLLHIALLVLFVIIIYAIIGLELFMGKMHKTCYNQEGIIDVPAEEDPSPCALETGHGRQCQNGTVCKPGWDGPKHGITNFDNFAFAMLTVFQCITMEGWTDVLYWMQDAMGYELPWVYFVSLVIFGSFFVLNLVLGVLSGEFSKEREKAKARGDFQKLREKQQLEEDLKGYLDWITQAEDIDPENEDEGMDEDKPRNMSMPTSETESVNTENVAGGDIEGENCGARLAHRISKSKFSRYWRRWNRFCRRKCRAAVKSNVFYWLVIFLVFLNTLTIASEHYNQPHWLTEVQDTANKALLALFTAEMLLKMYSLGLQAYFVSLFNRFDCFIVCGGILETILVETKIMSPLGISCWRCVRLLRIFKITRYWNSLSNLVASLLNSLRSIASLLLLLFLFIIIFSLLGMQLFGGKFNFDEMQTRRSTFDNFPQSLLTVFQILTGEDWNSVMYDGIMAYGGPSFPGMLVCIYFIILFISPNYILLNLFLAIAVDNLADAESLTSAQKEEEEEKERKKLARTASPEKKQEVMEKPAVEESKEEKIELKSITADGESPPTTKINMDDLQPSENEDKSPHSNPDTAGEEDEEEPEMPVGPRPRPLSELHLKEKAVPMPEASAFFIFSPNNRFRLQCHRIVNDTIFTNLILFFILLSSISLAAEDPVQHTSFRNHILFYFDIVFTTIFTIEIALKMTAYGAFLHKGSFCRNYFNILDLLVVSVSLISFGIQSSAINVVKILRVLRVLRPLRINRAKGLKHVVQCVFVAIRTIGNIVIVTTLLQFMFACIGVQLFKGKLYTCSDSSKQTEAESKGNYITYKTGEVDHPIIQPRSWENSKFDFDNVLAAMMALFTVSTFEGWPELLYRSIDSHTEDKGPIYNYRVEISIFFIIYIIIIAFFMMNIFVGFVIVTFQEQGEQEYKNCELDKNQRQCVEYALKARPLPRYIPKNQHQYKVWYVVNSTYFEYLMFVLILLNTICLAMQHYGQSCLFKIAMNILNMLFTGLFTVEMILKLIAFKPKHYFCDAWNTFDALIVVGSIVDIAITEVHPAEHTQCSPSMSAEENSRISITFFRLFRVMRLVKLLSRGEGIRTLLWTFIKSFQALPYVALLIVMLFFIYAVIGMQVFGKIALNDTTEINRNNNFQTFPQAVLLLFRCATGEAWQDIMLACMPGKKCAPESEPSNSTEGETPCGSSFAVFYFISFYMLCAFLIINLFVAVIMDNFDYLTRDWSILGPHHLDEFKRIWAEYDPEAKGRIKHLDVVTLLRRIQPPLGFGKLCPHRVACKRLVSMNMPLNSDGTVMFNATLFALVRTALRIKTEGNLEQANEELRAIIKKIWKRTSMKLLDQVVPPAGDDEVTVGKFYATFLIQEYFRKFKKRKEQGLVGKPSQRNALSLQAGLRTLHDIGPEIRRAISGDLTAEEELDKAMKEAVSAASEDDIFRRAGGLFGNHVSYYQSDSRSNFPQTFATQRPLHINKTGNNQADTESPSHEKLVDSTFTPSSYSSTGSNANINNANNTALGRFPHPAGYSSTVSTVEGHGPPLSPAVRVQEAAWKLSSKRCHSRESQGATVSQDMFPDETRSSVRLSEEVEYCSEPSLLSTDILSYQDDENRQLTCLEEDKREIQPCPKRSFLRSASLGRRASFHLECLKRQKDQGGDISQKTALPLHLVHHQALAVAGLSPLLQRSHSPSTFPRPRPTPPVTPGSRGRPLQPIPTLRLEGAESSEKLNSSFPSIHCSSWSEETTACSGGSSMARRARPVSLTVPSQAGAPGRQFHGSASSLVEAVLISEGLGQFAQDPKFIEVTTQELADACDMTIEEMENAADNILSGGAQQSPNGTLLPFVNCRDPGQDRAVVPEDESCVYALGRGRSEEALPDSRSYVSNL

[6] = target: Gamma-aminobutyric acid receptor subunit alpha-1 (Rattus norvegicus, UniProt P62813)
Sequence of Gamma-aminobutyric acid receptor subunit alpha-1 (P62813 whole entry): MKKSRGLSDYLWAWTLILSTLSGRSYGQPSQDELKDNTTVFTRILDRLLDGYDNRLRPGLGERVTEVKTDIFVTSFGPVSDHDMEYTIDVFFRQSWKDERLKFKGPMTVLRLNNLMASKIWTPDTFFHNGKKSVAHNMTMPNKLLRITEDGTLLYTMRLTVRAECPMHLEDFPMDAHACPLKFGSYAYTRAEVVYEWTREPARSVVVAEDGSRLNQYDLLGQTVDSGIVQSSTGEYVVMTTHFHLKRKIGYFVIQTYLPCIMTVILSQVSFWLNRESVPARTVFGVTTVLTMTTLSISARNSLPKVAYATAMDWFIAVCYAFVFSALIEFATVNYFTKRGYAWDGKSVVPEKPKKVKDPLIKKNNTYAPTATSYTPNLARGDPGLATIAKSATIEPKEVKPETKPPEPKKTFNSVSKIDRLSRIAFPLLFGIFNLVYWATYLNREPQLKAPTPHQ

[7] = target: T5, Neuropeptide Y receptor type 1 (Homo sapiens, UniProt P25929)
T5 sequence (P25929 whole entry): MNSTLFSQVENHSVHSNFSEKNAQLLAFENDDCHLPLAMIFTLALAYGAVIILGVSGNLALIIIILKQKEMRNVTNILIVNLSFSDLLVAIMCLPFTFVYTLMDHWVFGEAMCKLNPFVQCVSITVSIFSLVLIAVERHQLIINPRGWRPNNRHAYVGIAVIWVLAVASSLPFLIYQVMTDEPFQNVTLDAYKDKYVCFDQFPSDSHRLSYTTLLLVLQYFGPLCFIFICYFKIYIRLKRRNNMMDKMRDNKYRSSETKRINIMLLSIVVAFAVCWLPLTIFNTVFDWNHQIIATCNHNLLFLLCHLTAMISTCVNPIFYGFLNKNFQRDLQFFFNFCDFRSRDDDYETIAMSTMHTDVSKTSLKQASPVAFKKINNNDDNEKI
Also: assay procedure not described here.

SMILES | AC50 (Adenosine receptor A3) [µM] | AC50 [1] [µM] | AC50 (Progesterone receptor) [µM] | AC50 [2] [µM] | AC50 [3] [µM] | AC50 [4] [µM] | AC50 [5] [µM] | AC50 [6] [µM] | AC50 [7] [µM]
CC(=O)Nc1ccc(O)cc1 [ACETAMINOPHEN] | > 30 | > 30 | > 30 | > 30 | – | – | – | – | –
COC(c1ccccc1)(c1ccccc1)[C@H](Oc1nc(C)cc(C)n1)C(=O)O [AMBRISENTAN] | > 30 | > 30 | > 30 | – | > 30 | > 30 | – | – | –
NCC(CC(=O)O)c1ccc(Cl)cc1 (centres undefined) [BACLOFEN] | > 30 | > 30 | > 30 | > 30 | – | – | > 10 | > 10 | > 30
CC(C)C[C@H]1C(=O)N2CCC[C@H]2[C@]2(O)O[C@](NC(=O)[C@@H]3C=C4c5cccc6[nH]c(Br)c(c56)C[C@H]4N(C)C3)(C(C)C)C(=O)N12 [BROMOCRIPTINE] | 1.92 | > 30 | > 30 | – | – | – | > 10 | > 10 | > 30
CN(C)CCn1nnnc1SCC1=C(C(=O)O)N2C(=O)[C@@H](NC(=O)Cc3csc(N)n3)[C@H]2SC1 [CEFOTIAM] | > 30 | > 30 | > 30 | – | > 30 | > 30 | – | – | –
Oc1c(Cl)cc(Cl)c2cccnc12 [CHLOROXINE] | > 30 | > 30 | > 30 | – | > 30 | > 30 | – | – | –
CN(C)[C@@H](c1cccc(O)c1)[C@H]1CCCC[C@H]1O [CIRAMADOL] | > 30 | > 30 | > 30 | – | > 30 | > 30 | – | – | –
CN(C)CC(c1ccc(O)cc1)C1(O)CCCCC1 (centres undefined) [DESVENLAFAXINE] | > 30 | > 30 | > 30 | – | > 30 | > 30 | – | – | –
CN(C)CCN1C(=O)c2ccccc2N(C)c2ccccc21 [DIBENZEPIN] | > 30 | > 30 | > 30 | – | > 30 | > 30 | – | – | –
O=C(Cc1ccc(-c2ccccc2)cc1)Nc1ccccn1 [DIFENPIRAMIDE] | – | > 30 | > 30 | > 30 | > 30 | > 10 | – | > 30 | –
N[C@H](C(=O)O)[C@H](O)c1ccc(O)c(O)c1 [DROXIDOPA] | > 30 | > 30 | > 30 | – | > 30 | > 30 | – | – | –
C[C@]12CC[C@@H]3c4ccc(O)cc4CC[C@H]3[C@@H]1C[C@@H](O)[C@@H]2O [ESTRIOL] | > 30 | > 30 | 3.3 | – | – | – | – | – | –
Cc1cc(C#N)cc(C)c1Oc1nc(Nc2ccc(C#N)cc2)nc(N)c1Br [ETRAVIRINE] | – | > 30 | 0.08 | – | > 10 | 2.71 | – | – | –
O=C(O)c1cc(O)ccc1O [GENTISIC ACID] | > 30 | > 30 | > 30 | – | > 30 | > 30 | – | – | –
CCC1=C(C)CN(C(=O)NCCc2ccc(S(=O)(=O)NC(=O)N[C@H]3CC[C@H](C)CC3)cc2)C1=O [GLIMEPIRIDE] | > 30 | > 30 | > 30 | – | – | – | – | – | –
CC(C)Nc1ncccn1 [ISAXONINE] | > 30 | > 30 | > 30 | – | > 30 | > 30 | – | – | –
Cc1cccc(Nc2ccccc2C(=O)O)c1C [MEFENAMIC ACID] | > 30 | > 30 | > 30 | – | – | – | > 10 | > 10 | > 10
CC1(C)NC(=O)N(c2ccc([N+](=O)[O-])c(C(F)(F)F)c2)C1=O [NILUTAMIDE] | – | > 30 | 12.7 | – | > 30 | > 3 | > 30 | > 30 | > 30
CC(C)(S)[C@@H](N)C(=O)O [PENICILLAMINE] | > 30 | > 30 | > 30 | – | – | – | – | – | –
COc1cc(NC(C)CCCN)c2ncccc2c1 (centres undefined) [PRIMAQUINE] | 14.7 | 16.2 | 15.4 | – | – | – | – | – | > 30
COCCCN1CCC(NC(=O)c2cc(Cl)c(N)c3c2OCC3)CC1 [PRUCALOPRIDE] | – | > 30 | > 30 | 15 | > 30 | > 30 | – | – | –
CS(=O)(=O)c1ccc(C2=C(c3ccccc3)C(=O)OC2)cc1 [ROFECOXIB] | 18.5 | > 30 | > 30 | > 30 | – | – | > 10 | > 10 | > 30
CO[C@H]1C[C@@H]2CC[C@@H](C)[C@@](O)(O2)C(=O)C(=O)N2CCCC[C@H]2C(=O)O[C@H]([C@H](C)C[C@@H]2CC[C@@H](O)[C@H](OC)C2)CC(=O)[C@H](C)/C=C(\C)[C@@H](O)[C@@H](OC)C(=O)[C@H](C)C[C@H](C)/C=C/C=C/C=C/1C [SIROLIMUS] | 26.4 | > 30 | > 30 | > 30 | – | – | > 10 | > 10 | > 30
Cc1cn([C@H]2C=C[C@@H](CO)O2)c(=O)[nH]c1=O [STAVUDINE] | > 30 | > 30 | > 30 | > 30 | – | – | > 10 | > 10 | > 30
CCCCCCOc1nsnc1C1=CCCN(C)C1 [XANOMELINE] | > 30 | 28.5 | > 30 | – | – | – | – | – | –
Cc1cn([C@H]2C[C@H](N=[N+]=[N-])[C@@H](CO)O2)c(=O)[nH]c1=O [ZIDOVUDINE] | > 30 | > 30 | > 30 | > 30 | – | – | > 10 | > 10 | > 30
